According to the OligoGym collection:
Where “and” joins values, the source holds several entries; their conditions need not be identical. Equal values may be shown once. After the bases stand the sugars from the 5' end (letter, count) and the backbone: PS all phosphorothioate, else s phosphorothioate and o phosphodiester by linkage. Methylation of C is not given here. e = 2'-O-(2-methoxyethyl) (MOE); k = constrained ethyl (cEt); d = 2'-deoxy (DNA)

Molecular target: IRF4
Conditions: ASO

| Sequence | target mRNA inhibition (SK-MEL-28, 4 µM) | also measured |
| --- | --- | --- |
| ATGAGATATTCCTCTC (sugars k3 d10 k3, PS) | 32% | – |
| TGAAATGTCAAACCCT (sugars k3 d10 k3, PS) | 54% | – |
| CTCTTTAAAATATCGC (sugars k3 d10 k3, PS) | 56% | – |
| GATATCAAAGATCTCC (sugars k3 d10 k3, PS) | 57% | – |
| TCACAGGTAAGGGCCC (sugars k3 d10 k3, PS) | 47% | – |
| GACTTAATTCTGGGTT (sugars k3 d10 k3, PS) | 35% | – |
| GGGAACCTGAAAAGAG (sugars k3 d10 k3, PS) | 21% | – |
| GTTCGCTGAATTGTCA (sugars k3 d10 k3, PS) | 37% | – |
| ACTGCTTGAGGTTTTC (sugars kkkddddddddkekek, PS) | – | target mRNA inhibition (MM.1R, 1 µM): 32% |
| ACCAACGACAGCATAG (sugars k3 d10 k3, PS) | 67% | – |
| CAGTGACTTGCATCCA (sugars kkdddddddddkdkdk, PS) | – | target mRNA inhibition (MM.1R, 1 µM): 36% |
| AGGAGGGTTGGCCTGC (sugars k3 d10 k3, PS) | 4% | – |
| AGCTTACTGTGATTCT (sugars k3 d10 k3, PS) | – | target mRNA inhibition (MM.1R, 1 µM): 13% |
| AGCCAAGGAGGCGGGC (sugars k3 d10 k3, PS) | -1% | – |
| TACTGTTACCGATGCT (sugars kddddddddddkekek, PS) | – | target mRNA inhibition (MM.1R, 1 µM): 10% and 2% |
| CGCCCATGAGTTGAAA (sugars k3 d10 k3, PS) | – | target mRNA inhibition (MM.1R, 1 µM): 13% |
| TACTGTTACCGATGCT (sugars k2 d9 e3 k2, PS) | – | target mRNA inhibition (MM.1R, 1 µM): 29% and 8% |
| TGGAACTCATAGGTGT (sugars k3 d10 k3, PS) | 62% | – |
| GTCATATGGCTAAACC (sugars k3 d10 k3, PS) | – | target mRNA inhibition (MM.1R, 1 µM): 23% |
| GCCCGGGAGAGCGGAG (sugars k3 d10 k3, PS) | – | target mRNA inhibition (MM.1R, 1 µM): -32% |
| AATCTTCTGCTGATCC (sugars k3 d10 k3, PS) | 72% | – |
| AGCAAACCCTGCACTC (sugars k3 d10 k3, PS) | 8% | – |
| CTGCTTGAGGTTTTCC (sugars kkkddddddddkekek, PS) | – | target mRNA inhibition (MM.1R, 1 µM): 26% |
| AACAAACAGAGGAGCG (sugars k3 d10 k3, PS) | 16% | – |
| CCTCAGTTTGTGAAGC (sugars k3 d9 k3 e1, PS) | – | target mRNA inhibition (MM.1R, 1 µM): 2% |
| GTCCGGTTAGCTCATC (sugars k3 d10 k3, PS) | 45% | – |

| Sequence | target mRNA inhibition (SK-MEL-28, 4 µM) | also measured |
| --- | --- | --- |
| ATTTACTGTTACCGAT (sugars k3 d10 k3, PS) | 29% | – |
| AAGCAAGTGTCTAAAG (sugars k3 d10 k3, PS) | 29% | – |
| AATCAGATGATGTCTA (sugars k3 d10 k3, PS) | -3% | – |
| ACCAATTTATGCCATG (sugars k3 d10 k3, PS) | 17% | – |
| GACGAAAACAGCCGCC (sugars k3 d10 k3, PS) | 62% | – |
| CCCCGTATCCCCGTAT (sugars k3 d10 k3, PS) | 45% | – |
| AGGGAGACAGCTCTAG (sugars k3 d10 k3, PS) | 25% | – |
| GGCCCGGGCGCATCCC (sugars k3 d10 k3, PS) | 5% | – |
| CCTGATGCCTCCGCCG (sugars k3 d10 k3, PS) | – | target mRNA inhibition (MM.1R, 1 µM): 6% |
| AGTGATGTCAGGTTTT (sugars k2 d9 e3 k2, PS) | – | target mRNA inhibition (MM.1R, 1 µM): 25% |
| CTGCTTGAGGTTTTCC (sugars kkddddddddddkeke, PS) | – | target mRNA inhibition (MM.1R, 1 µM): 44% |
| GGTAACAATACTGTAA (sugars k3 d10 k3, PS) | 59% | – |
| ACTTGCTAAGTCTTAT (sugars k3 d10 k3, PS) | – | target mRNA inhibition (MM.1R, 1 µM): 13% |
| AGACAGGTCTCTACCT (sugars k3 d10 k3, PS) | – | target mRNA inhibition (MM.1R, 1 µM): -12% |
| CAGCATGAGCTCGGTC (sugars k3 d10 k3, PS) | – | target mRNA inhibition (MM.1R, 1 µM): 22% |
| AGTGTCTAAAGTCCCA (sugars kdddddddddkekeke, PS) | – | target mRNA inhibition (MM.1R, 1 µM): -12% and 12% |
| CAAAGAGGGTCACAGG (sugars k3 d10 k3, PS) | 63% | – |
| GTTTATTTCCTACTCT (sugars k3 d10 k3, PS) | 16% | – |
| TGGATTGCTGATGTGT (sugars k3 d10 k3, PS) | – | target mRNA inhibition (MM.1R, 0.0625 µM): 45%; target mRNA inhibition (MM.1R, 0.25 µM): 58%; target mRNA inhibition (MM.1R, 1 µM): 71% and 75%; target mRNA inhibition (MM.1R, 4 µM): 90% |
| AGAGAGTCCGACGCAC (sugars k3 d10 k3, PS) | – | target mRNA inhibition (MM.1R, 1 µM): -18% |
| ACCATTACTTAGACAT (sugars k3 d10 k3, PS) | 65% | – |
| TGTTAAGTCCCATCTG (sugars k3 d10 k3, PS) | 25% | – |
| CGCAAGTCTACAGCCC (sugars k3 d10 k3, PS) | 59% | target mRNA inhibition (MM.1R, 0.0625 µM): 0%; target mRNA inhibition (MM.1R, 0.074 µM): -7%; target mRNA inhibition (MM.1R, 0.222 µM): -9%; target mRNA inhibition (MM.1R, 0.25 µM): 1%; target mRNA inhibition (MM.1R, 0.666 µM): -9%; target mRNA inhibition (MM.1R, 1 µM): 6%; target mRNA inhibition (MM.1R, 2 µM): 8%; target mRNA inhibition (MM.1R, 4 µM): 12% |
| TGATGTGATAGCTGAG (sugars k2 d9 e3 k2, PS) | – | target mRNA inhibition (MM.1R, 1 µM): 47% |
| CCCAAAGGGCATCCTC (sugars k3 d10 k3, PS) | 41% | – |
| CTTCATTTACTGTTAC (sugars k3 d10 k3, PS) | 31% | – |

| Sequence | target mRNA inhibition (SK-MEL-28, 4 µM) | also measured |
| --- | --- | --- |
| TTCCGTAGTCAGCTCC (sugars k3 d10 k3, PS) | 68% | – |
| ATTTACACCGTTGCTC (sugars k3 d10 k3, PS) | – | target mRNA inhibition (MM.1R, 1 µM): 13% |
| CTGTATGGAACCCCAA (sugars k3 d10 k3, PS) | – | target mRNA inhibition (MM.1R, 1 µM): 3% |
| ACAAGCATAAAAGGTT (sugars k3 d10 k3, PS) | 4% | – |
| GCAGTAAACGCAAGTC (sugars k3 d10 k3, PS) | 54% | – |
| GAGCCGCCACATCAGC (sugars k3 d10 k3, PS) | 23% | – |
| ACACTTTTAGAGAGGA (sugars kdddddddddkekeke, PS) | – | target mRNA inhibition (MM.1R, 1 µM): 6% |
| GATTTCTAGGTAATCT (sugars k3 d10 k3, PS) | 31% | – |
| GAGCATCACTATTAAG (sugars k3 d10 k3, PS) | – | target mRNA inhibition (MM.1R, 1 µM): 14% |
| GCATAGGTCCTTCAGA (sugars k3 d10 k3, PS) | 31% | – |
| ACACAAGTGGCCTTCC (sugars k3 d10 k3, PS) | 31% | – |
| AAGCTTGATAAAGGCT (sugars e1 k2 d9 k2 e2, PS) | – | target mRNA inhibition (MM.1R, 1 µM): -1% |
| TCAGATACACACCCTC (sugars k3 d10 k3, PS) | 37% | – |
| AGGAATGGCGGATAGA (sugars k3 d10 k3, PS) | 38% | – |
| CCTCAGTTTGTGAAGC (sugars k3 d10 k3, PS) | 69% | – |
| ACACACAAGTGGCCTT (sugars k3 d10 k3, PS) | 44% | – |
| CATCACTCTAGTCAGT (sugars k3 d10 k3, PS) | 59% | – |
| GTCTAGACAGAGAGTC (sugars k3 d10 k3, PS) | 2% | – |
| AATTTTCACAGTGATC (sugars k3 d10 k3, PS) | 34% | – |
| GGTGAAACTGAGAGTG (sugars k3 d10 k3, PS) | 8% | – |
| CAACAGTGCCAGAGCA (sugars k3 d10 k3, PS) | 11% | – |
| TAATAGTAAGTTCTAG (sugars k3 d10 k3, PS) | 0% | – |
| ACAGAGAGTCCGACGC (sugars k3 d10 k3, PS) | – | target mRNA inhibition (MM.1R, 1 µM): -8% |
| ATCCAGAGGACCACGC (sugars k3 d10 k3, PS) | 19% | – |
| GGCGGAGCATCAACAA (sugars k3 d10 k3, PS) | 60% | – |
| ATGATATTAGAGACTG (sugars k3 d10 k3, PS) | 74% | – |

| Sequence | target mRNA inhibition (SK-MEL-28, 4 µM) | also measured |
| --- | --- | --- |
| ACGATGATAGCTCACC (sugars k3 d10 k3, PS) | 8% | – |
| CGCCACATCAGCAGAC (sugars k3 d10 k3, PS) | 12% | – |
| CACATTAAAGGGTAAG (sugars k3 d10 k3, PS) | -1% | – |
| AATGTCCACTGTTTTG (sugars k3 d10 k3, PS) | 47% | – |
| CAATAATCTCCCAGCA (sugars k3 d10 k3, PS) | 37% | – |
| ATAGCTGTTTATTTCC (sugars k4 d8 k4, PS) | 59% | target mRNA inhibition (MM.1R, 0.074 µM): 7%; target mRNA inhibition (MM.1R, 0.222 µM): 6%; target mRNA inhibition (MM.1R, 0.666 µM): 11%; target mRNA inhibition (MM.1R, 2 µM): 32%; target mRNA inhibition (SK-MEL-28, 0.185 µM): -2% and -10% and -3%; target mRNA inhibition (SK-MEL-28, 15 µM): 81% and 79% and 91% |
| CTGGAGGTCGAACCTC (sugars k3 d10 k3, PS) | 2% | – |
| AAGGTTCCTGTCACCT (sugars k3 d10 k3, PS) | -2% | – |
| AGATATCCTGCAACTG (sugars k3 d10 k3, PS) | -9% | – |
| CTTGCCAGTGGTGGCC (sugars k3 d10 k3, PS) | 16% | – |
| AGAACATTACGAGAGG (sugars k3 d10 k3, PS) | – | target mRNA inhibition (MM.1R, 0.0625 µM): 2% and 12%; target mRNA inhibition (MM.1R, 0.25 µM): 16% and 20%; target mRNA inhibition (MM.1R, 1 µM): 41% and 51%; target mRNA inhibition (MM.1R, 4 µM): 65% and 66% |
| CACTTGTCTTGGGTGG (sugars k3 d10 k3, PS) | 45% | – |
| TAATTCTCCTATGCTG (sugars k3 d10 k3, PS) | – | target mRNA inhibition (MM.1R, 1 µM): 3% |
| TGTAAGGGCTGCTCAT (sugars k3 d10 k3, PS) | 49% | – |
| TCCTCCTCGCGGTTGT (sugars k3 d10 k3, PS) | 59% | – |
| CATGAAATCCAAGGTA (sugars k3 d10 k3, PS) | 49% | – |
| GTAGAAGCCCACAAGA (sugars k3 d10 k3, PS) | -4% | – |
| CTACATCTACTCCAGA (sugars k3 d10 k3, PS) | 22% | – |
| CAGAGACGCGGTGAGA (sugars k3 d10 k3, PS) | -61% | – |
| CACATAACTCAGGCAA (sugars k3 d10 k3, PS) | 37% | – |
| TCTTTGAAGTGCTGTG (sugars k3 d10 k3, PS) | 57% | – |
| CTACAGATCTCAGCAA (sugars k3 d10 k3, PS) | 18% | – |
| CCTTCAGATTTACACC (sugars k3 d10 k3, PS) | – | target mRNA inhibition (MM.1R, 1 µM): -9% |
